Source: patent publication US8946215B2, “Hydroxy-substituted imidazo[1,2-a]pyridinecarboxamides and their use” (Bayer Pharma Aktiengesellschaft, priority 2012, dated 2015)
Where a name gives a salt, the structure may show the parent alone.

Target: T1, recombinant guanylate cyclase reporter cell line (Rattus norvegicus, UniProt P19686+P20595)
T1 construct: expressed in transfected cells
T1 sequence (P20595 1-619): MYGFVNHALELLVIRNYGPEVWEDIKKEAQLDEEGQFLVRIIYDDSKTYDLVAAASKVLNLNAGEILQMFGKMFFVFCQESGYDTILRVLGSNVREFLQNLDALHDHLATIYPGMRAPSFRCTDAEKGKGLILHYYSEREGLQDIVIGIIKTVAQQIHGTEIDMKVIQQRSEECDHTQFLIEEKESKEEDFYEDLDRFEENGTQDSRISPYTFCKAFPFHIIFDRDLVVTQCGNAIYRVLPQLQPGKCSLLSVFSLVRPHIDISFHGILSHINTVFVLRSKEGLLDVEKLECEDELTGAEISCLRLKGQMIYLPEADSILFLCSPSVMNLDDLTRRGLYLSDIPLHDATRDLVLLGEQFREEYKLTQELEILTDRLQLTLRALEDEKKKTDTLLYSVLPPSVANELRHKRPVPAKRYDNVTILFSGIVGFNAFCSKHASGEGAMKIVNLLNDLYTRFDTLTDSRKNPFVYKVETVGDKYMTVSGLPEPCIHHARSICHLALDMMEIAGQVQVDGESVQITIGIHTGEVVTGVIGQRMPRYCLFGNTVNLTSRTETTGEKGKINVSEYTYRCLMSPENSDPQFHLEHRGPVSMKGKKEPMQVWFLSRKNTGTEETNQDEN
T1 sequence (P19686 1-690): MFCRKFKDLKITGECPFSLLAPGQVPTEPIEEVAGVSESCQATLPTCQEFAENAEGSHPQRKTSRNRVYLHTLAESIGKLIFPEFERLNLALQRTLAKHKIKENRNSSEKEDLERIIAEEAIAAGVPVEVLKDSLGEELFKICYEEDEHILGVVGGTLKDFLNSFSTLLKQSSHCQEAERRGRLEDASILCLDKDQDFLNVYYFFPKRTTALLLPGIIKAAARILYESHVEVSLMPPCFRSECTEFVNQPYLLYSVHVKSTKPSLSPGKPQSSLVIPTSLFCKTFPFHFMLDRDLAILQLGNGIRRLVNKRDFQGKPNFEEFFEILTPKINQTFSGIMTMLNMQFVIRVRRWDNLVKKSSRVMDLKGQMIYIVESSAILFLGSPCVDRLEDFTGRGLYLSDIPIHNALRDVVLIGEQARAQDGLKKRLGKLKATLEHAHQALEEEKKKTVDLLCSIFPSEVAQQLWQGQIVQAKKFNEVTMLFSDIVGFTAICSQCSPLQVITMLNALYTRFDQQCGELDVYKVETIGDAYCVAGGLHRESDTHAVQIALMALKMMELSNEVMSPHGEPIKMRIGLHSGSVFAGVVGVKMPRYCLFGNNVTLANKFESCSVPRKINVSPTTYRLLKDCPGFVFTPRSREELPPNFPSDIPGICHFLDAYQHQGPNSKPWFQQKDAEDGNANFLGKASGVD
Experiment: Action on recombinant guanylate cyclase reporter cell line
Format: cell-based
Settings: in some cases mean values obtained from individual determinations
Method: B-2. Action on Recombinant Guanylate Cyclase Reporter Cell Line
The cellular action of the compounds according to the invention is determined on a recombinant guanylate cyclase reporter cell line, as described in F. Wunder et al., Anal. Biochem. 339, 104-112 (2005).
Representative values (MEC=minimal effective concentration) for the compounds according to the invention are shown in the following table (in some cases as mean values obtained from individual determinations): […]

| Compound | MEC (minimal effective concentration) [µM] | MEC (minimal effective concentration) (trifluoroacetate) [µM] |
| --- | --- | --- |
| Cc1nc2c(OCc3c(F)cccc3F)cccn2c1C(=O)N[C@@H](CO)Cc1ccccc1 [Example 38] | 0.3 | – |
| CCCC[C@H](CO)NC(=O)c1c(C)nc2c(OCc3c(F)cccc3F)cc(C#N)cn12 [Example 157, 6-Cyano-8-[(2,6-difluorobenzyl)oxy]-N-[(2R)-1-hydroxyhexan-2-yl]-2-methylimidazo[1,2-a]-pyridine-3-carboxamide] | 0.065 | – |
| Cc1cc(OCc2c(F)cncc2F)c2nc(C)c(C(=O)NC(CCC(F)(F)C(F)(F)F)C(C)(C)O)n2c1 (single isomer, unassigned; ent-8) [Example 193, ent-8-[(3,5-difluoropyridine-4-yl)methoxy]-2,6-dimethyl-N-(6,6,7,7,7-pentafluoro-2-hydroxy-2-methylheptan-3-yl)imidazo[1,2-a]pyridine-3-carboxamide (enantiomer A)] | 1 | – |
| CCC(O)CNC(=O)c1c(C)nc2c(OCCC(C(F)(F)F)C(F)(F)F)cc(C)cn12 (racemic) [Example 174, rac-N-(2-hydroxybutyl)-2,6-dimethyl-8-[4,4,4-trifluoro-3-(trifluoromethyl)butoxy]imidazo[1,2-a]pyridine-3-carboxamide] | 3.0 | – |
| Cc1nc2c(OCC3CCCCC3)cccn2c1C(=O)NC(CO)COC(C)(C)C (stereo not shown) [Example 94, N-(1-tert-butoxy-3-hydroxypropan-2-yl)-8-(cyclohexylmethoxy)-2-methylimidazo[1,2-a]-pyridine-3-carboxamide] | 3.0 | – |
| Cc1cc(OCCC(C(F)(F)F)C(F)(F)F)c2nc(C)c(C(=O)NC3c4ccccc4CC3O)n2c1 (stereo not shown) [Example 172, N-(2-Hydroxy-2,3-dihydro-1H-inden-1-yl)-2,6-dimethyl-8-[4,4,4-trifluoro-3-(trifluoromethyl)-butoxy]imidazo[1,2-a]pyridine-3-carboxamide] | 1.0 | – |
| CCCC[C@H](CO)NC(=O)c1c(C)nc2c(OCc3cccc4c3OC(F)(F)O4)cccn12 [Example 12] | 3.0 | – |

Results, then the molecule that gave them:

| MEC (minimal effective concentration) [µM] | MEC (minimal effective concentration) (trifluoroacetate) [µM] | Compound |
| --- | --- | --- |
| 0.03 | – | Cc1nc2c(OCc3c(F)cccc3F)cccn2c1C(=O)NC(CO)CCCC(F)(F)F (racemic) [Example 114, rac-8-[(2,6-difluorobenzyl)oxy]-2-methyl-N-(6,6,6-trifluoro-1-hydroxyhexan-2-yl)imidazo[1,2-a]pyridine-3-carboxamide] |
| 0.03 | – | CCCC[C@@H](NC(=O)c1c(C)nc2c(OCc3c(F)cccc3F)cccn12)C(C)O (stereo partly drawn) [Example 139, 8-[(2,6-Difluorobenzyl)oxy]-N-[(3R)-2-hydroxyheptan-3-yl]-2-methylimidazo[1,2-a]pyridine-3-carboxamide] |
| 1.0 | – | CCC[C@@H](CO)NC(=O)c1c(C)nc2c(OCC3CCCCC3)cccn12 [Example 89, 8-(cyclohexylmethoxy)-N-[(2S)-1-hydroxypentan-2-yl]-2-methylimidazo[1,2-a]pyridine-3-carboxamide] |
| 0.3 | – | Cc1nc2c(OCC3CCCCC3)cccn2c1C(=O)NC1CCCC1O (stereo not shown) [Example 83, 8-(cyclohexylmethoxy)-N-(2-hydroxycyclopentyl)-2-methylimidazo[1,2-a]pyridine-3-carboxamide] |
| – | 0.1 | Cc1nc2c(OCc3c(F)cccc3F)cccn2c1C(=O)NC(CO)CCCC(F)(F)F (racemic) [Example 102, rac-8-[(2,6-difluorobenzyl)oxy]-2-methyl-N-(6,6,6-trifluoro-1-hydroxyhexan-2-yl)-imidazo[1,2-a]pyridine-3-carboxamide trifluoroacetate] |
| 0.3 | – | Cc1nc2c(OCc3c(F)cccc3F)cccn2c1C(=O)NCCC(C)(C)O [Example 153, 8-[(2,6-difluorobenzyl)oxy]-N-(3-hydroxy-3-methylbutyl)-2-methylimidazo[1,2-a]pyridine-3-carboxamide] |
